# From patent US9212168B2 (priority 2011, dated 2015)
# pEC50: −log10 of the molar value.
# System: HCV genotype 1a replicon
# Experiment: HCV genotype 1a replicon assay (NS3 protease activity readout)
# Type: cell-based, hepatitis C virus
# Conditions: HCV genotype 1a replicon
# Procedure, shortened: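 EC50 values came from a 4-parameter robust fit of fluorescence (ex 340, em 509 nm) produced by NS3-specific protease in lysates, assayed with 15 μM FRET substrate for 20 min at 37° C, after 48 or 72 hours of compound exposure (0.5% DMSO) of Huh7.5-derived APC89 genotype 1a replicon cells.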
row,SMILES,Genotype 1a
1,COC(=O)N[C@H](C(=O)N1C[C@@H](C)C[C@H]1c1nc(-c2ccc(-c3cc(Cl)c(NC(=O)c4ccc(N5CCN(C(=O)C(C)(C)C)C[C@H]5C)nc4)cc3C(F)(F)F)cc2)c[nH]1)C1CCCCC1 [Example 19-8],B (B represents pEC50 between 8 and 9 (EC50 between 1 and 10 nM))
2,COC(=O)N[C@H](C(=O)N1C[C@@H](C)C[C@H]1c1nc(-c2ccc(-c3cc(Cl)c(NC(=O)c4ccc(N5CCN(C(C)=O)C[C@H]5C)nc4)cc3OC(F)(F)F)cc2)c[nH]1)C(C)C [Example 1-66],"C (C represents pEC50 between and 9 and about 10, (EC50 between 1 nM and 0.1 nM))"
3,COC(=O)N[C@H](C(=O)N1C[C@@H](C)C[C@H]1c1nc(-c2ccc(-c3cc(F)c(NC(=O)c4ccc(N5C[C@H](C)N(C(=O)c6c[nH]cn6)C[C@H]5C)nc4)cc3C(F)(F)F)cc2)c[nH]1)C(C)C [Example 1-21],D (D represents pEC50>10 (EC50<0.1 nM))
4,COC(=O)N[C@H](C(=O)N1C[C@@H](C)C[C@H]1c1nc(-c2ccc(-c3cc(Cl)c(NC(=O)c4ccc(N5CCN(C(=O)[C@H]6CCCN6C(=O)C(C)(C)C)C[C@H]5C)nc4)cc3OC(F)(F)F)cc2)c[nH]1)C(C)C [Example 1-50],D (D represents pEC50>10 (EC50<0.1 nM))
5,COC(=O)N[C@H](C(=O)N1C[C@@H](C)C[C@H]1c1nc(-c2ccc(-c3cc(Cl)c(NC(=O)c4ccc(N5CCN(C(=O)NN(C)C)C[C@H]5C)nc4)cc3OC(F)(F)F)cc2)c[nH]1)C(C)C [Example 1-94],D (D represents pEC50>10 (EC50<0.1 nM))
6,COC(=O)N[C@H](C(=O)N1C[C@@H](C)C[C@H]1c1nc(-c2ccc(-c3ccc(NC(=O)c4ccc(N5CCN(C(=O)[C@H]6CC6(C)C)C[C@H]5C)nc4)cc3OC(F)(F)F)cc2)c[nH]1)C(C)C [Example 1-74],D (D represents pEC50>10 (EC50<0.1 nM))
7,COC(=O)N[C@H](C(=O)N1C[C@@H](C)C[C@H]1c1nc(-c2ccc(-c3cc(F)c(NC(=O)c4ccc(N5CCN(C(=O)C6CC6)C[C@H]5C)nc4)cc3F)cc2)c[nH]1)C(C)C [Example 1-83],"C (C represents pEC50 between and 9 and about 10, (EC50 between 1 nM and 0.1 nM))"
8,COC(=O)N[C@H](C(=O)N1C[C@@H](C)C[C@H]1c1nc(-c2ccc(-c3cc(F)c(NC(=O)c4ccc(N5CCN(C(=O)c6c[nH]cn6)C[C@H]5C)nc4)cc3C(F)(F)F)cc2)c[nH]1)C(C)C [Example 1-29],D (D represents pEC50>10 (EC50<0.1 nM))
9,COC(=O)N[C@H](C(=O)N1C[C@@H](N(C)C)C[C@H]1c1nc(-c2ccc(-c3cc(Cl)c(NC(=O)c4ccc(N5CCN(C(=O)C(C)(C)C)C[C@H]5C)nc4)cc3OC(F)(F)F)cc2)c[nH]1)C(C)C [Example 2-7],"C (C represents pEC50 between and 9 and about 10, (EC50 between 1 nM and 0.1 nM))"
10,COC(=O)NC(C(=O)N1CC(OC)CC1c1nc(-c2ccc(-c3ccc(NC(=O)c4ccc(N5CCN(C(=O)C(C)(C)C)CC5C)nc4)cc3OC(F)(F)F)cc2)c[nH]1)C(C)O (centres unmarked) [Example 16-10],"C (C represents pEC50 between and 9 and about 10, (EC50 between 1 nM and 0.1 nM))"
11,COC(=O)NC(C(=O)N1CC(C)CC1c1nc(-c2ccc(-c3cc(Cl)c(NC(=O)c4ccc(N5CCN(C(=O)C(C)(C)C)CC5C)nc4)cc3C(F)(F)F)cc2)c[nH]1)C1CC(C)OC(C)C1 (centres unmarked) [Example 19-10],A (A represents a pEC50 value between 6 and 8 (EC50 between 1 μM and 10 nM))
12,COC(=O)N[C@H](C(=O)N1C[C@@H](O)C[C@H]1c1nc(-c2ccc(-c3cc(Cl)c(NC(=O)c4ccc(N5CCN(C(=O)C(C)(C)C)C[C@H]5C)nc4)cc3OC(F)(F)F)cc2)c[nH]1)C(C)C [Example 26-8],"C (C represents pEC50 between and 9 and about 10, (EC50 between 1 nM and 0.1 nM))"
13,COC(=O)NC(C(=O)N1CC(C)CC1c1nc(-c2ccc(-c3cc(F)c(NC(=O)c4ccc(N5CCN(C(=O)C6CC6(Cl)Cl)CC5C)nc4)cc3Cl)cc2)c[nH]1)C(C)C (mixture of isomers) [Example 1-77],D (D represents pEC50>10 (EC50<0.1 nM))
14,COC(=O)N[C@H](C(=O)N1C[C@@H](OC)C[C@H]1c1nc(-c2ccc(-c3ccc(NC(=O)c4ccc(N5CCN(C(=O)C(C)(C)CO)C[C@H]5C)nc4)cc3OC(F)(F)F)cc2)c[nH]1)C1CCOCC1 [Example 28-4],D (D represents pEC50>10 (EC50<0.1 nM))
15,COC(=O)N[C@H](C(=O)N1C[C@@H](N(C)C)C[C@H]1c1nc(-c2ccc(-c3ccc(NC(=O)c4ccc(N5CCN(C(=O)[C@H]6CC6(C)C)C[C@H]5C)nc4)cc3C)cc2)c[nH]1)C(C)C [Example 2-4],D (D represents pEC50>10 (EC50<0.1 nM))
16,COC(=O)NC(C(=O)N1C(C)CCC1c1nc(-c2ccc(-c3ccc(C(=O)Nc4ccc(N5CCN(C(=O)C6CC6(C)C)CC5C)nc4)cc3OC(F)(F)F)cc2)c(Cl)[nH]1)C(C)C (centres unmarked) [Example 18-1],"C (C represents pEC50 between and 9 and about 10, (EC50 between 1 nM and 0.1 nM))"
17,COC(=O)N[C@H](C(=O)N1C[C@@H](C)C[C@H]1c1nc(-c2ccc(-c3ccc(C(=O)Nc4ccc(N5CCN(C(=O)C(C)(C)C)C[C@H]5C)nc4)cc3OC(F)(F)F)cc2)c[nH]1)C(C)C [Example 4-36],"C (C represents pEC50 between and 9 and about 10, (EC50 between 1 nM and 0.1 nM))"
18,COC(=O)N[C@H](C(=O)N1C[C@@H](C)C[C@H]1c1nc(-c2ccc(-c3ccc(C(=O)Nc4ccc(N5C[C@H](C)N(C(=O)[C@@]6(O)CC6(C)C)C[C@H]5C)nc4)cc3OC(F)(F)F)cc2)c[nH]1)C(C)C [Example 4-38],"C (C represents pEC50 between and 9 and about 10, (EC50 between 1 nM and 0.1 nM))"
19,COC(=O)N[C@H](C(=O)N1C[C@@H](C)C[C@H]1c1nc(-c2ccc(-c3cc(Cl)c(NC(=O)c4ccc(N5CCN(C(=O)C6(C)CC6)C[C@H]5C)nc4)cc3OC(F)(F)F)cc2)c[nH]1)C(C)C [Example 1-80],"C (C represents pEC50 between and 9 and about 10, (EC50 between 1 nM and 0.1 nM))"
20,CNC(=O)N1CCN(c2ccc(C(=O)Nc3cc(OC(F)(F)F)c(-c4ccc(-c5c[nH]c([C@@H]6C[C@H](OC)CN6C(=O)[C@@H](NC(=O)OC)C6CCOCC6)n5)cc4)cc3Cl)cn2)[C@H](C)C1 [Example 28-13],D (D represents pEC50>10 (EC50<0.1 nM))
21,CNC(=O)N1CCC[C@@]1(C)C(=O)N1C[C@@H](C)N(c2ccc(C(=O)Nc3cc(OC(F)(F)F)c(-c4ccc(-c5c[nH]c([C@@H]6C[C@H](C)CN6C(=O)[C@@H](NC(=O)OC)C(C)C)n5)cc4)cc3Cl)cn2)C[C@@H]1C [Example 1-23],D (D represents pEC50>10 (EC50<0.1 nM))
22,COC(=O)N[C@H](C(=O)N1C[C@@H](C)C[C@H]1c1nc(-c2ccc(-c3cc(Cl)c(NC(=O)c4ccc(N5CCN(C(=O)C6(C(F)(F)F)CC6)C[C@H]5C)nc4)cc3OC(F)(F)F)cc2)c[nH]1)C(C)C [Example 1-99],D (D represents pEC50>10 (EC50<0.1 nM))

# Same assay, conditions: Hepatitis C virus, read-out: Genotype 1a, HCV genotype 1a replicon
row,SMILES,pEC50
1,COC(=O)N[C@H](C(=O)N1C[C@@H](S(C)(=O)=O)C[C@H]1c1nc(-c2ccc(-c3ccc(C(=O)Nc4ccc(N5CCN(C(=O)C(C)(C)C)C[C@H]5C)nc4)cc3OC(F)(F)F)cc2)c[nH]1)C(C)C [Example 6-22],8.00 to 9.00
2,COC(=O)N[C@H](C(=O)N1C[C@H](OC)C[C@H]1c1nc(-c2ccc(-c3cc(Cl)c(NC(=O)c4ccc(N5CCN(C(=O)C(C)(C)C)C[C@H]5C)nc4)cc3OC(F)(F)F)cc2)c[nH]1)C(C)C [Example 5-19],> 10.00
3,COC(=O)N[C@H](C(=O)N1C[C@@H](S(C)(=O)=O)C[C@H]1c1nc(-c2ccc(-c3ccc(C(=O)Nc4ccc(N5CCN(C(=O)[C@H]6CC6(C)C)C[C@H]5C)nc4)cc3OC(F)(F)F)cc2)c[nH]1)C(C)C [Example 6-21],9.00 to 10.00
4,COC(=O)N[C@@H](C(=O)N1C[C@@H](C)C[C@H]1c1nc(-c2ccc(-c3cc(Cl)c(NC(=O)c4ccc(N5CCN(C(=O)C(C)(C)C)C[C@H]5C)nc4)cc3OC(F)(F)F)cc2)c[nH]1)C1CCCCC1 [Example 13-40],6.00 to 8.00
5,COC(=O)N[C@H](C(=O)N1C[C@@H](C)C[C@H]1c1nc(-c2ccc(-c3cc(Cl)c(NC(=O)c4ccc(N5CCN(C(=O)C(C)(C)CNC(C)=O)C[C@H]5C)nc4)cc3OC(F)(F)F)cc2)c[nH]1)C(C)C [Example 12-42],> 10.00
6,CNC(=O)NCC(C)(C)C(=O)N1CCN(c2ccc(C(=O)Nc3cc(OC(F)(F)F)c(-c4ccc(-c5c[nH]c([C@@H]6C[C@H](C)CN6C(=O)[C@@H](NC(=O)OC)C(C)C)n5)cc4)cc3Cl)cn2)[C@H](C)C1 [Example 12-40],> 10.00
7,COC(=O)N[C@H](C(=O)N1C[C@@H](N(C)C)C[C@H]1c1nc(-c2ccc(-c3ccc(C(=O)Nc4ccc(N5CCN(C(=O)C(C)(C)C)C[C@H]5C)nc4)cc3OC(F)(F)F)cc2)c(Cl)[nH]1)C(C)C [Example 10-3],> 10.00
8,COC(=O)N(C)[C@H](C(=O)N1C[C@@H](C)C[C@H]1c1nc(-c2ccc(-c3cc(Cl)c(NC(=O)c4ccc(N5CCN(C(=O)C(C)(C)CO)C[C@H]5C)nc4)cc3OC(F)(F)F)cc2)c[nH]1)C(C)C [Example 13-45],9.00 to 10.00
9,COC(=O)N[C@H](C(=O)N1C[C@@H](C)C[C@H]1c1nc(-c2ccc(-c3cc(Cl)c(NC(=O)c4ccc(N5CCN(C(=O)C6(N(C)C)CC6)C[C@H]5C)nc4)cc3OC(F)(F)F)cc2)c[nH]1)C(C)C [Example 12-10],> 10.00
10,COC(=O)N[C@H](C(=O)N1C[C@@H](C)C[C@H]1c1nc(-c2ccc(-c3cc(Cl)c(NC(=O)c4ccc(N5CCN(C(=O)C(C)(C)C)C[C@H]5C)nc4)c(Cl)c3OC(F)(F)F)cc2)c[nH]1)C(C)C [Example 5-14],9.00 to 10.00
11,CCC(CO)(CO)C(=O)N1CCN(c2ccc(C(=O)Nc3cc(OC(F)(F)F)c(-c4ccc(-c5c[nH]c([C@@H]6C[C@H](C)CN6C(=O)[C@@H](NC(=O)OC)C(C)C)n5)cc4)cc3Cl)cn2)[C@H](C)C1 [Example 12-4],> 10.00
12,COC(=O)N[C@H](C(=O)N1C[C@@H](C)C[C@H]1c1nc(-c2ccc(-c3cc(Cl)c(NC(=O)c4ccc(N5CCN(C(=O)C(C)(C)C)C[C@H]5C)nc4)cc3OC(F)(F)F)cc2)c[nH]1)[C@H](C)O [Example 13-6],> 10.00
13,COC(=O)N[C@H](C(=O)N1C[C@@H](C)C[C@H]1c1nc(-c2ccc(-c3cc(Cl)c(NC(=O)c4ccc(N5CCN(C(=O)c6ccccn6)C[C@H]5C)nc4)cc3OC(F)(F)F)cc2)c[nH]1)C(C)C [Example 12-7],9.00 to 10.00
